In patent US20100273203A1 (priority 2009, published 2010):
Like-named read-outs stand apart in the source and are kept apart here.

Legend:
[1] = LC-MS/MS urinary metabolic profile of patients receiving warfarin; details: for % R / % S (proportion in (S)-enantiomeric form) / % conjugated (proportion glucuronidated) / urinary concentration: urine; for urinary concentration: free and conjugated; for share of (S)-WAR P450 metabolites measured: three urine specimens
Source text: All chemicals used in this study were of at least reagent grade. Unless otherwise specified, all chemicals and reagents were purchased from either Sigma-Aldrich (St. Louis, Mo.) or Thermo Fisher Scientific (Waltham, Mass.). […] Ethyl alcohol (100%) was purchased from AAPER (Shelbyville, Ky.). Re-combinant CYP2C9*1, CYP3A4, CYP1A2, and CYP2C19 were expressed in baculovirus-infected insect cells and purchased from BD Biosciences (San Jose, Calif.). Commercially available urine specimens from three females (F84, F85, and F87) were provided by the Emergency Response and Air Toxicants Branch, Division of Laboratory Science National Center for Environmental Health Centers for Disease Control and Prevention (DeKalb County, Ga.). Patient studies were conducted under IRB-approved protocols, and all patients signed informed consent documentation.
This analytical phase was accomplished by reverse-phase HPLC using a 4.6 mm×150 mm C18 Zorbax Eclipse 5 μm XDB-C18 column provided by Agilent (Santa Clara, Calif.). The operating temperature was 40° C., and the sample injection volume was 5.0 μL. HPLC mobile phases consisted H2O (0.1% acetic acid v/v) (A) and methanol (0.1% acetic acid v/v) (B). The flow rate was 1 mL/min. […] The total run time per sample was 10 min. Specific MS/MS experimental conditions used in this study are noted in Table 1.
To determine the relative abundance of the (R)-and (S)-enantiomers of each metabolite, a 4.6 mm×25 cm Chirobiotic V5 μm column supplied by Supelco (Bellefonte, Pa.) was incorporated during the second analytical phase. Mobile phases consisted of H2O (0.1% acetic acid v/v) (A) and acetonitrile (0.1% acetic acid v/v) (B) with a flow rate of 800 μL/min. Enantiomeric separations were accomplished under isocratic conditions (80% A and 20% B). The sample injection volume was 15.0 μL. Enantiomeric MS/MS analyses were performed in negative ion mode by electrospray ionization (ESI) using a Turbo IonSpray source. A total run time of 20 min was required for adequate resolution. Specific MS/MS experimental conditions used in this study are noted in the Table 2.
Each response was normalized to that of the internal standard, 7-hydroxycoumarin (10 μM). […] Measurements of these three metabolites were calculated by taking the difference of the amount measured in the first analytical phase, which contained both (R)-and (S) isomers from the amount of the (S)-isomer measured in the second analytical phase (eq 3). Glucuronidated metabolites were measured by incubating 250 μL of urine with 2000 units of GUS in 100 mM sodium acetate buffer, pH 5.0. The final volume for each of these reactions was 1 mL. Control reactions omitting GUS were included with each sample set. Reactions were incubated overnight at 37° C., after which they were stored at −80° C. Immediately before analysis, both samples were diluted with an equal volume of ethanol containing 7-hydroxycoumarin (10 μM final concentration). The difference between GUS-treated samples and controls represented the amount of glucuronidated metabolites present.

[2] = molecular target: CYP2C9 (Homo sapiens, UniProt P11712); details: read-out: IC50 toward recombinant CYP2C9 activity; P450-Glo, 50 μM Luciferin H; racemic compounds
Method: Hydroxywarfarins were screened for inhibitory potential toward recombinant CYP2C9 using the Promega (Madison, Wis.) CY2C9 P450-Glo™ Assay using the manufacturer's protocol. These IC50 studies were analyzed on a PerkinElmer Victor^3V™ 1420 Multilabel Counter. Recombinant CYP2C9, 50 nM, was incubated with 50 μM Luciferin H, and six concentrations of each hydroxywarfarin from approximately 10 nM to 4 mM final concentration, as optimized for each compound. The appropriate volume of hydroxywarfarin stocks in 100% ethanol were added to each well prior to addition of the substrate and enzyme, and the ethanol was allowed to evaporate at room temperature to minimize solvent effects on CYP2C9 activity. A final DMSO concentration of 1% was present in the reactions due to the P450-Glo Luciferin H. The reaction was initiated upon addition of an NADPH regenerating solution (BD Biosciences) and quenched with a luciferase quench (Promega) at 30 min.

[3] = molecular target: CYP2C9 present in the human liver microsomes (Homo sapiens, UniProt P11712); details: for Ki / Mechanism of inhibition: S-warfarin metabolism
Method: (§1) For each hydroxywarfarin, at least 4 independent experimental replicates were performed.
(§2) MS/MS experimental conditions was used as described previously (6).
(§3) The most probable inhibition mechanism for recombinant CYP2C9 and human liver microsome reactions was identified using DynaFit ver. 3.28 (Biokin, Ltd) (20). Data from each set of hydroxywarfarin experiments were fit to traditional reversible inhibition mechanisms (competitive, uncompetitive, noncompetitive, or mixed). The respective kinetic parameters (Ki and Ki′) were set as variables, while the kinetic parameters (Vmax and Km) were constants based on values obtained from uninhibited reactions. The most probable mechanism was then identified using the Akaike Information Criterion (AICc) for model discrimination (21).

[4] = molecular target: T1, CYP2C9*1 (Homo sapiens, UniProt P11712); details: for Ki / Mechanism of inhibition: S-warfarin metabolism
Method: as §1, §2, §3

[5] = molecular target: T2, CYP1A2 (Homo sapiens, UniProt P05177); details: read-out: IC50 for CYP marker reaction; P450-Glo marker reaction
T2 sequence (P05177 1-516): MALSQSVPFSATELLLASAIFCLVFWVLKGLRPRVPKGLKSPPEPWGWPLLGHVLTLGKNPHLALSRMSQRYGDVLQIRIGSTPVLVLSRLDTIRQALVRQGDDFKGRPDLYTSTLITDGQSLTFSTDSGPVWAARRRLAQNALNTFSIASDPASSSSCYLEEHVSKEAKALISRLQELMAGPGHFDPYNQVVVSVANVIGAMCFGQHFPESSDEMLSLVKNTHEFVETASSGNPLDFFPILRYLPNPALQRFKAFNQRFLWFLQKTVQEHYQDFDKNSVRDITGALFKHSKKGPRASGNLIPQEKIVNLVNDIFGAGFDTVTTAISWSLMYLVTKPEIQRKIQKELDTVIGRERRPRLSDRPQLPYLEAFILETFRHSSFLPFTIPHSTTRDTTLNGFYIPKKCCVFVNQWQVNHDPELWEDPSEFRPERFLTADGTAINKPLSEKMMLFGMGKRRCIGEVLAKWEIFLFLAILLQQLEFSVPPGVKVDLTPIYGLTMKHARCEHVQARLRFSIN

[6] = molecular target: T1, CYP2C9*1; details: read-out: IC50 for CYP marker reaction; P450-Glo marker reaction
[7] = molecular target: T3, CYP3A4 (Homo sapiens, UniProt P08684); details: read-out: IC50 for CYP marker reaction; P450-Glo marker reaction
[8] = tested on: plasma proteins; details: cited from earlier work
[9] = molecular target: UGT1A10 (Homo sapiens, UniProt Q9HAW8); details: glucuronidation; racemic OHWars
Source text: (§4) The characterization of hepatic and extrahepatic glucuronidation may be made based on glucuronidation studies with 100 commercially available HLM and 100 intestinal microsomal preparations available in our laboratory. […] Both racemic mixtures and separated R and S enantiomers may be assayed. […] Activities of extrahepatic (UGT1A8 and UGT1A10) and hepatic (UGT1A1, UGT1A3, and UGT1A9) isoforms may be compared to that of their respective microsomal preparations, and assign the contribution of specific UGTs to product formation by the human samples.

[10] = molecular target: UGT1A1 (Homo sapiens, UniProt P22309); details: glucuronidation; racemic OHWars
Source text: as §4

[11] = Estimated unbound levels in plasma of long-term warfarin therapy patients; details: estimated from literature data
[12] = molecular target: T3, CYP3A4; assay: Steady-state metabolism of R- and S-warfarin by recombinant CYP3A4
Method: (§5) Reactions were initiated upon addition of an NADPH regenerating system [2 μU μL-1 glucose 6-phosphate dehydrogenase, 10 mM glucose 6-phosphate, 2 mM MgCl2, 1 mM NADP^+]. […] The quenched reactions were centrifuged and the resulting supernatant containing substrate and products resolved and quantified by UPLC-MS/MS. Each experiment was performed in at least 4 independent experimental replicates.
(§6) The flow rate was constant at 250 μL/min. […] Electrospray conditions were as follows: spray voltage of 4500 V, sheath gas pressure 45, auxiliary gas pressure 20, and collision energy of 15-15 eV (compound specific).
(§7) Final metabolite concentrations were calculated from the ratio of metabolite area to internal standard area in the sample and compared to calibration curves as determined from the UPLC-MS/MS method. All compounds were quantified relative to authentic standards. The resulting kinetic data were analyzed with GraphPad Prism 5® software. Non-linear regression analysis was used to fit steady-state data to the Michaelis-Menten equation to determine the Vmax and Km parameters.

[13] = molecular target: CYP3A7 (Homo sapiens, UniProt P24462); assay: Steady-state metabolism of R- and S-warfarin by recombinant CYP3A7
Method: as §5, §6, §7

[14] = 7-hydroxywarfarin formation as marker
[15] = based on S-6-hydroxywarfarin formation
[16] = 10-hydroxywarfarin formation, 37° C, pH 7.4

Sequence of CYP3A7 (P24462 whole entry): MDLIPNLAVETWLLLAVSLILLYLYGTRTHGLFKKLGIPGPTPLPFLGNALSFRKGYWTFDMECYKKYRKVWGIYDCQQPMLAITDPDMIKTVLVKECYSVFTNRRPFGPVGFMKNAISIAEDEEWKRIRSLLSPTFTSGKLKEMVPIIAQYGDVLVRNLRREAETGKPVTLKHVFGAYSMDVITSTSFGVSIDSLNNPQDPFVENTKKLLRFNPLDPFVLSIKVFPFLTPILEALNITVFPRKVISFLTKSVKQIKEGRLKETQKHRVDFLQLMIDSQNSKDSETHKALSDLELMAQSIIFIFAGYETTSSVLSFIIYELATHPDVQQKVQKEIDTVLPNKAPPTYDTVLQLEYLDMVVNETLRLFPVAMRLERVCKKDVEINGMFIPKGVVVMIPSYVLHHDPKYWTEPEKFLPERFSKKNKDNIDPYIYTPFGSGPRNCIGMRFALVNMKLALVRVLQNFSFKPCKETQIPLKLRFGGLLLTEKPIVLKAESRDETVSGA
T3 sequence (P08684 whole entry): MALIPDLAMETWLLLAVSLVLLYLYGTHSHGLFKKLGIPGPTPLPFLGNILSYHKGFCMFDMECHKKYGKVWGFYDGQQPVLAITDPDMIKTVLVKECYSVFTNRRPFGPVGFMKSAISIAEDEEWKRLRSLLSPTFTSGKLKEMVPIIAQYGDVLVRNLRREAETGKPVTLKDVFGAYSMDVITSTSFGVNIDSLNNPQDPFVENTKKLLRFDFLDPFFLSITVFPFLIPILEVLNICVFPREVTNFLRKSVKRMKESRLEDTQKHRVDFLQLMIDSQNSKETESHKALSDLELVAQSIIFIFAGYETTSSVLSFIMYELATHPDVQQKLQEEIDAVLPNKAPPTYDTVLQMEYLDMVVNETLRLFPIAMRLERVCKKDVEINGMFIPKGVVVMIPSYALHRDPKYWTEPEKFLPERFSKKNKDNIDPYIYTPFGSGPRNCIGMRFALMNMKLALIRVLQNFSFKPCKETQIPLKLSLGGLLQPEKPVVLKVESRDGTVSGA
Sequence of CYP2C9 present in the human liver microsomes (P11712 whole entry): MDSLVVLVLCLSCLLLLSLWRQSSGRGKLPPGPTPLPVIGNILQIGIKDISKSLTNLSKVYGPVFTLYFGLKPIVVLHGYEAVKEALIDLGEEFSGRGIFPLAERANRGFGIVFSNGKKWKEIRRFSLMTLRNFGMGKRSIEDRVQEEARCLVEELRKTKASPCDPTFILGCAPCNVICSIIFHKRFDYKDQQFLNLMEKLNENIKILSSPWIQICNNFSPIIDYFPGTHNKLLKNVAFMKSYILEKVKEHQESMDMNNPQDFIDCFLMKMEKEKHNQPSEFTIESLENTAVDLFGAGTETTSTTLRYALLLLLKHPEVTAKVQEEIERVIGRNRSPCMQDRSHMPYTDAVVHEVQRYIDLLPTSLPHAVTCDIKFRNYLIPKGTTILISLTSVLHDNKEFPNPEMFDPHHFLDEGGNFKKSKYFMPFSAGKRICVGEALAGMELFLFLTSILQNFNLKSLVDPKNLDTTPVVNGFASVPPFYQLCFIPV
Sequence of CYP2C9 (P11712 whole entry): as above
Sequence of UGT1A10 (Q9HAW8 26-530): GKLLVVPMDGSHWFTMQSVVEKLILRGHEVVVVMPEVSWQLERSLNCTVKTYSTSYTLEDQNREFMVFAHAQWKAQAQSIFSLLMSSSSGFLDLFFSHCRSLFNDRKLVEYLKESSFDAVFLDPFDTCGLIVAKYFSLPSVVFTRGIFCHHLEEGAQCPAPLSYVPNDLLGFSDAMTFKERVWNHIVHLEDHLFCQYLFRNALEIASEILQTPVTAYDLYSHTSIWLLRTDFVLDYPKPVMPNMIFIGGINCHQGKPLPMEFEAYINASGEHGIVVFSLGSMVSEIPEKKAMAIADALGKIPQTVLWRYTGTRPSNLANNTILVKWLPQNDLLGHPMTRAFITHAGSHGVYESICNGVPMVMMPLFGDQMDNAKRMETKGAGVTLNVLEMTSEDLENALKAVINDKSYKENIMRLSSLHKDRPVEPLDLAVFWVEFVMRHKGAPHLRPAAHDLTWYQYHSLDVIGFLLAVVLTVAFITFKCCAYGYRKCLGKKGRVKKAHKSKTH
Sequence of UGT1A1 (P22309 26-533): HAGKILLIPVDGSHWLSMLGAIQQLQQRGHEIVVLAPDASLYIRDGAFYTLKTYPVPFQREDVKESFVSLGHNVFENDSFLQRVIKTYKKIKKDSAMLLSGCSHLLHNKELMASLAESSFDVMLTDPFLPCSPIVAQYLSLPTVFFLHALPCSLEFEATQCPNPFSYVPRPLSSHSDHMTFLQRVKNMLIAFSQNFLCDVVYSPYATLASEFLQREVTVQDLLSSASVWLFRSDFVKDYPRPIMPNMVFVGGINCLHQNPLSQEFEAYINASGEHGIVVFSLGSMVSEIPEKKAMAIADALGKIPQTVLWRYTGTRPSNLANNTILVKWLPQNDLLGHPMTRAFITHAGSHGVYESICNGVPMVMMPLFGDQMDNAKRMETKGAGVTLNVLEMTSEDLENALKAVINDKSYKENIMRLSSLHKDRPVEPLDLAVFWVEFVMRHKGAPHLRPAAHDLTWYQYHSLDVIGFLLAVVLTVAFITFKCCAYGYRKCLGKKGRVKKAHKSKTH

CC(=O)CC(c1ccc(O)cc1)c1c(O)c2ccccc2oc1=O (stereo not shown) [4′-OH-WAR, 4′-hydroxywarfarin]
% R ([1]; patient F84): 64%
% S (proportion in (S)-enantiomeric form) ([1]; patient F84): 56%
% conjugated (proportion glucuronidated) ([1]; patient F84): 47%
urinary concentration ([1]; patient F84): 140 nM
% R ([1]; patient F85): 25%
% S (proportion in (S)-enantiomeric form) ([1]; patient F85): 75%
urinary concentration ([1]; patient F85): 94 nM
% R ([1]; patient F87): 30%
% S (proportion in (S)-enantiomeric form) ([1]; patient F87): 70%
urinary concentration ([1]; patient F87): 20 nM
IC50 [2]: 9.3 µM
Ki [3, 14]: 17 µM
Mechanism of inhibition [3, 14]: Competitive
Ki [4, 14]: 17 µM
Mechanism of inhibition [4, 14]: Mixed
Ki ([4]; 7-hydroxywarfarin formation as marker, mixed inhibition): 133 µM
IC50 [5]: > 3000 µM
IC50 [6]: 8.4 µM
IC50 [7]: 39 µM
plasma protein binding affinity relative to warfarin [8]: affinity comparable to warfarin

CC(=O)CC(c1ccccc1)c1c(O)c2cc(O)ccc2oc1=O (stereo not shown) [6-OH-WAR, 6-hydroxywarfarin]
% R ([1]; patient F84): 65%
% S (proportion in (S)-enantiomeric form) ([1]; patient F84): 35%
% conjugated (proportion glucuronidated) ([1]; patient F84): 35%
urinary concentration ([1]; patient F84): 560 nM
% R ([1]; patient F85): 69%
% S (proportion in (S)-enantiomeric form) ([1]; patient F85): 31%
% conjugated (proportion glucuronidated) ([1]; patient F85): 15%
urinary concentration ([1]; patient F85): 1124 nM
% R ([1]; patient F87): 62%
% S (proportion in (S)-enantiomeric form) ([1]; patient F87): 38%
% conjugated (proportion glucuronidated) ([1]; patient F87): 12%
urinary concentration ([1]; patient F87): 204 nM
Km [9]: 399 ± 130 µM
Vmax [9]: 3.1 ± 0.4 nmol/mg protein/min
IC50 [2]: 47 µM
Ki [3, 14]: 167 µM
Mechanism of inhibition [3, 14]: Competitive
Ki, fold higher than the marker Km ([3]; human liver microsomes): approximately 32 fold
Ki [4, 14]: > 170 µM
Mechanism of inhibition ([4]; 7-hydroxywarfarin formation as marker, listed as 6-hydroxywarfarin): no inhibition was observed
Mechanism of inhibition ([4]; 7-hydroxywarfarin formation as marker, listed as 6OHWAR): None
IC50 [5]: 1400 µM
IC50 [6]: 44.3 µM
IC50 [7]: > 500 µM
plasma protein binding affinity relative to warfarin [8]: three- to four-fold lower affinity

CC(=O)CC(c1ccccc1)c1c(O)c2ccc(O)cc2oc1=O (stereo not shown) [7-OH-WAR, 7-hydroxywarfarin]
% R ([1]; patient F84): 80%
% S (proportion in (S)-enantiomeric form) ([1]; patient F84): 20%
% conjugated (proportion glucuronidated) ([1]; patient F84): 69%
urinary concentration ([1]; patient F84): 1964 nM
% R ([1]; patient F85): 38%
% S (proportion in (S)-enantiomeric form) ([1]; patient F85): 62%
% conjugated (proportion glucuronidated) ([1]; patient F85): 28%
urinary concentration ([1]; patient F85): 2404 nM
% R ([1]; patient F87): 52%
% S (proportion in (S)-enantiomeric form) ([1]; patient F87): 48%
% conjugated (proportion glucuronidated) ([1]; patient F87): 14%
urinary concentration ([1]; patient F87): 724 nM
Km [10]: 58.8 ± 24 µM
Vmax [10]: 1.3 ± 0.1 nmol/mg protein/min
Km [9]: 220 ± 40 µM
Vmax [9]: 1.0 ± 0.1 nmol/mg protein/min
IC50 [2]: 35 µM
Ki [3, 15]: 64 µM
Mechanism of inhibition [3, 15]: Competitive
Ki, fold higher than the marker Km ([3]; human liver microsomes): 8.5 fold
Ki [4, 15]: 10 µM
Mechanism of inhibition [4, 15]: Competitive
Ki, fold higher than the marker Km ([4]; recombinant CYP2C9): 4.5 fold
IC50 [5]: 400 µM
IC50 [6]: 45.7 µM
IC50 [7]: > 500 µM
plasma protein binding affinity relative to warfarin [8]: three- to four-fold lower affinity
mean unbound concentration in human plasma (estimated) [11]: 6.2 ng/mL

CC(=O)C(O)C(c1ccccc1)c1c(O)c2ccccc2oc1=O (stereo not shown) [10-OH-WAR, 10-hydroxywarfarin]
detection in urine specimens ([1]; any of the three specimens): not detected
IC50 [2]: 1.6 µM
Ki [3, 14]: 2.2 µM
Mechanism of inhibition [3, 14]: Competitive
Ki, fold lower than the microsomal Km for S-warfarin ([3]; human liver microsomes): 2.4 fold
Ki [4, 14]: 0.94 µM
Mechanism of inhibition [4, 14]: Competitive
Ki, fold lower than the Km for S-warfarin ([4]; recombinant CYP2C9): approximately 2.5 fold
IC50 [6]: 2 µM
mean unbound concentration in human plasma (estimated) [11]: 5.8 ng/mL

CC(=O)C[C@@H](c1ccccc1)c1c(O)c2ccc(O)cc2oc1=O [(S)-7-OH-WAR, (S) 7-hydroxywarfarin]
share of (S)-WAR P450 metabolites measured [1]: 61-71%

CC(=O)C[C@@H](c1ccccc1)c1c(O)c2cccc(O)c2oc1=O [(S)-8-OH-WAR, (S) 8-hydroxywarfarin]
share of (S)-WAR P450 metabolites measured [1]: 4-20%

CC(=O)C[C@@H](c1ccccc1)c1c(O)c2ccccc2oc1=O [S-warfarin, (S) warfarin, reference compound]
Km ([12]; 4′-hydroxywarfarin formation): 27 µM
Vmax ([12]; 4′-hydroxywarfarin formation): 64 pmol product/min/nmol P450
Km ([12]; 10-hydroxywarfarin formation): 26 µM
Vmax [12, 16]: 76 pmol product/min/nmol P450
Km ([13]; 4′-hydroxywarfarin formation): 2280 µM
Vmax ([13]; 4′-hydroxywarfarin formation): 321 pmol product/min/nmol P450
Km ([13]; 10-hydroxywarfarin formation): 81 µM
Vmax [13, 16]: 22 pmol product/min/nmol P450
mean unbound concentration in human plasma (estimated) [11]: 2.7 ng/mL
